From US6080731A, “Dinucleoside-5', 5'-pyrophosphates administered to treat HIV” (Biosearch Italia, S.p.A., priority 1994, dated 2000) come the findings set out here.

The nature of series [1]: Concentration of di-AZT-5',5'-P^1,P^2 -pyrophosphate and its metabolites in loaded human red blood cells. The note with it: 37° C., autologous plasma; for Concentration into human red blood cells: 10% hematocrit, erythrocytes loaded with di-AZT-pyrophosphate. The series is classed as in vitro ADME. As to the method:
(§1) A two step procedure was used consisting of a first dialysis of the washed and packed erythrocytes (80% hematocrit) against 70 volumes of hemolysing buffer (5 mM Na2 HPO4 supplemented with 4 mM MgCl2, pH 7.2, 26 mOsm) for 35 minutes at 4° C. under gentle rotation. This step was followed by addition of 10-15 mM di-AZT-5',5'-P^1,P^2 -pyrcphosphate inside the dialysis bag and further dialysis for 15 minutes under the same conditions. Erythrocytes were then resealed by dialysing them for 40 minutes at 4° C. against phosphate-saline buffer, pH 7.4, supplemented with 10 mM glucose and adenosine, 310 mOsm. The loaded erythrocytes were then extensively washed with ice-cold aqueous NaCl (0.9% w/w) and incubated at 37° C. in autologous plasma at 10% hematocrit.
(§2) The concentration of the dinucleoside pyrophosphate and its metabolites in the plasma and red blood cells was determined at successive time intervals by using the following method.
At various times, 1 ml aliquots of the incubation mixture were withdrawn. After the separation of the erythrocytes from plasma, the two fractions were separately extracted.
100 Microliters of packed red blood cells (RBC) were added to 100 microliters of water, then 68 microliters of 3.7 M perchloric acid (PCA) were added under vigorous shaking. The sample was centrifuged and 140 microliters of the supernatant were neutralized with 30 microliters of 3 M potassium carbonate. The sample was then centrifuged to remove the formed precipitate.
(§3) 150 Microliters of the plasma fractions were treated with 50 microliters of 3.7 M PCA and 120 microliters of the supernatant were neutralized with 27 microliters of 3 M potassium carbonate and centrifuged. […] The solvent program was a linear gradient starting at 100% of buffer A (0.1 M KH2 PO4 with 5 mM tert-butylammonium hydroxide (TBA), pH 4.9) and increasing up to 100% buffer B (0.1 M KH2 PO4 with 5 mM TBA, in 40% (v/v) methanol in water, pH 4.9) in 30 minutes; 100% buffer B was maintained up to 50 minutes. The flow rate was 0.4 ml/min and the eluted compounds were monitored with a spectrophotometric detector set at 265 nm.

The nature of series [2]: Concentration of di-AZT-5',5'-P^1,P^2 -pyrophosphate and its metabolites in human plasma incubated with loaded erythrocytes. It is filed as in vitro ADME. As to conditions: 37° C., autologous plasma, 10% hematocrit, released from loaded erythrocytes. As to the method:
as §1, §2
At various times, 1 ml aliquots of the incubation mixture were withdrawn. After the separation of the erythrocytes from plasma, the two fractions were separately extracted. […]
as §3

A short description of series [3]: De-phosphorylation rate of encapsulated pro-drug. The note with it: pro-drug for encapsulation into erythrocytes. It is filed as in vitro ADME.
Series [4] can be described thus: 50% cytotoxic concentration in MT-4 cells. The note with it: human. It is filed as cell-based. An excerpt:
(§4) To confirm the anti-HIV activity of some dinucleoside-5',5'-P^1,P^2-pyrophosphates representative of this invention, invitro tests have been carried out on a HTLV-1 transformed cell line, MT-4, which is highly susceptible to and permissive for HIV infection. The inhibition of the HIV-induced cytopathic effect was used as the end point. The procedure of this test is essentially that described by R. Pauwels et al. "Rapid and automated tetrazolium-based calorimetric assay for the detection of anti-HIV compounds". Journal of Virological Methods, 20, (1988), 309-321.
(§5) Thymine-3'-azido-2',3'-dideoxy-D-riboside (AZT) was taken as control compound.

The subject of another series is HIV. Description: Anti-HIV in vitro activity: inhibition of the HIV-induced cytopathic effect in MT-4 cells. The series is classed as cell-based. The note with it: Human immunodeficiency virus 1, MT4, read-out: 50% effective concentration (IC50).
Excerpt: as §4, §5

SMILES strings stand for the structures. Where only a bound is given, the exact number is not on record here.

In the case of `Cc1cn([C@H]2C[C@H](N=[N+]=[N-])[C@@H](COP(=O)(O)O)O2)c(=O)[nH]c1=O` [AZT-monophosphate, thymine-3'-azido-2',3'-dideoxy-D-riboside-5'-monophosphate], the “Concentration into human red blood cells” value amounted to 40 µM in series [1] (0 h), 90 µM in series [1] (2 h), 650 µM in series [1] (6 h) and 930 µM in series [1] (24 h). Further, the “Concentration in human plasma” value in series [2] (0 h) turned out to be 21.94 µM; in series [2] (2 h) it was 28.21 µM; in series [2] (6 h), 24.68 µM; in series [2] (24 h), 67.11 µM.

For the compound `O=c1[nH]c(=O)n([C@H]2C[C@H](O)[C@@H](COP(=O)(O)OP(=O)(O)OC[C@H]3O[C@@H](n4cc(F)c(=O)[nH]c4=O)C[C@@H]3O)O2)cc1F` [Example 6, di-(5-fluorouracil-2'-deoxy-D-riboside)-5',5'-P^1,P^2-pyrophosphate], the “De-phosphorylation rate with respect to the respective monophosphate” value in series [3] is on record as “lower de-phosphorylation rate with respect to the respective monophosphate”.

With `Cc1cn([C@H]2C[C@H](N=[N+]=[N-])[C@@H](COP(=O)(O)OP(=O)(O)OC[C@H]3O[C@@H](n4cc(C)c(=O)[nH]c4=O)C[C@@H]3N=[N+]=[N-])O2)c(=O)[nH]c1=O` [Compound 1, di-(thymine-3'-azido-2',3'-dideoxy-D-riboside)-5',5'-P^1,P^2-pyrophosphate], the “Concentration into human red blood cells” value in series [1] (0 h) was 3900 µM; in series [1] (2 h) it was 4100 µM; in series [1] (6 h), 2900 µM; in series [1] (24 h), 1800 µM. In addition, the “Release from the erythrocytes” value in series [1] (human red blood cells) is “released from the erythrocytes at a very low rate”. In series [4], this compound showed a CC50 of more than 100000 nM. The “Concentration in human plasma” value amounted to 4.49 µM in series [2] (0 h), 3.75 µM in series [2] (2 h), 5.27 µM in series [2] (6 h) and 5.34 µM in series [2] (24 h). Moreover, in the series with HIV, the IC50 was 31 nM.

As for `Cc1cn([C@H]2C[C@H](N=[N+]=[N-])[C@@H](CO)O2)c(=O)[nH]c1=O` [AZT, thymine-3'-azido-2',3'-dideoxy-D-riboside, reference compound], the results for the “Concentration into human red blood cells” value in series [1] (6 h) and in series [1] (24 h) were 600 µM and 100 µM, respectively. The same compound gave a CC50 in series [4] of 70000 nM. Besides, the “Concentration in human plasma” value in series [2] (0 h) amounted to 4.6 µM; in series [2] (2 h) it was 14.42 µM; in series [2] (6 h), 62.43 µM; in series [2] (24 h) it was 355.78 µM. Also, the IC50 in the series with HIV worked out at 28 nM.
